Laboratory results taken from patent US11234982B2, “Methods for treating ocular surface pain” (NOVARTIS AG, priority 2019, dated 2022).
“Also recorded” adds a separate entry of the source.

Test system: patients undergoing photorefractive keratectomy (PRK) surgery
Test: PRK study: ocular safety assessments and vital signs
Assay type: in vivo, human
Procedure: The study was a proof of concept, double-masked, randomized, vehicle-controlled study of compound I administered as eye drops in addition to standard of care treatment in patients after PRK surgery. PRK surgery was performed as an outpatient procedure under topical anesthesia with removal of the corneal epithelium to expose the stroma for the laser ablation. Compound I dosing was as single eye drop of 2.5% (25 mg/ml, 0.925 mg/drop), administered four times daily (every six hours) in one eye from immediate post-op (time 0) to last dose at 72 hours.
Adverse events and serious adverse events included an assessment of both systemic and ocular assessments. Systemic safety assessments included regular assessments of height and weight, vital signs, reporting medication errors including misuse/abuse, pregnancy reporting and early phase safety monitoring. The misuse/abuse, pregnancy reporting and early phase safety monitoring were not assessed for the study. Ocular safety assessments included the following: • Best-corrected visual acuity (BCVA) and uncorrected visual acuity (UCVA): Was measured at each visit using an ETDRS visual acuity chart at 4 meters (13 feet) or 1 meter (for patients that cannot read the 4 meter chart). The BCVA scoring was done based on the number of correctly read letters plus 30. If visual acuity was so poor that the patient could not read any of the largest letters at 1 meter, count fingers and hand movement vision and light perception was tested. • Intraocular Pressure (TOP): IOP measurements were conducted with applanation tonometry or Tonopen. • Dilated fundus exam: The dilated fundus examination included ophthalmoscopic assessments of the vitreous, retina/macula/choroid, and optic nerve. Evaluations for retinal tear/detachment, retinal hemorrhage, vitreous hemorrhage density, vitreous haze grading and abnormal findings were done and scored according to grading criteria. • Ocular hyperemia: Conjunctival redness of the bulbar conjunctiva in each eye at the slit lamp according to the McMonnies redness scale was graded. […] By adjusting the calibrated slit beam width and height, the maximum horizontal (wound width) and vertical dimensions (wound height) of the surgical epithelial wound was estimated. The evaluation was performed until wound closure and report of wound size as 0 horizontal and 0 vertical dimensions. • Slit-lamp biomicroscopy: Ocular signs (eyelids/conjunctiva, cornea, lens, and iris/anterior chamber) was assessed in both eyes by slit lamp biomicroscopy according to the grading criteria. • Blink rate: A blink was defined as a bilateral paroxysmal closure of the eyelids (duration<1 second) in the absence of a provoking external stimulus. Each blink assessment lasted for 2 min (or as close to 2 minutes as possible with minimum time 1 minute) and the obtained blink rate was averaged to calculate blink rate in blinks/min. • Tear production (Schirmer's test without anesthesia): The test was performed without anesthetic in both eyes simultaneously. Tear secretion was measured in millimeters of the length of strip wetted by tears. […] The strip was wetted with 1 drop of sterile saline and flicked to remove excess saline. The patient blinked several times to ensure dispersion of the dye throughout the tear film prior to grading on a scale of 0-3 (0=Normal, No staining; 1=Mild, Superficial stippling micropunctate staining; 2=Moderate, Macropunctate staining with some coalescent areas and 3=Severe, Numerous coalescent macropunctate areas and/or patches) for each of 5 zones (central plus 4 quadrants).

[1] = across the scheduled time points

Q: `CC(C)c1nc2cc(O)ccc2c(=O)n1-c1ccc(C#N)cc1` [Compound I, 4-(7-hydroxy-2-isopropyl-4-oxo-4H-quinazolin-3-yl)-benzonitrile] was tested. Which “Ocular hyperemia (McMonnies scale) grade 4, compound I vs Vehicle treated eyes” value (Day 2 postoperatively (24 hours after PRK surgery)) did it give?
A: The value was “less grade 4 hyperemia (all quadrants); also recorded: Fewer compound I-treated eyes showed severe conjunctival hyperemia”.

Q: And the “Ocular hyperemia (McMonnies scale) grade 3, compound I vs Vehicle treated eyes” value (Day 3 (48 hours post-operative))?
A: The value was “less grade 3 hyperemia”.

Q: And the Dilated fundus exam [1]?
A: The Dilated fundus exam was “No abnormal findings”.

Q: What about the “Slit-lamp biomicroscopy: aqueous flare and inflammatory cell grade, iris/anterior chamber, lens” value [1] of the same molecule?
A: Its value is “No abnormalities were observed”.

Q: What about the “Changes in BCVA, IOP, slit-lamp biomicroscopy, dilated eye exam, blink rate, tear production, corneal staining, vital signs compared to Vehicle” value (after compound I administration) of the same molecule?
A: The value was “no clinically relevant changes”.

Q: And the “Vital sign parameters (blood pressures, pulse rate, body temperature)” value (all patients during the study)?
A: Its value is “within the normal range”.

Q: And the “Increase in mean IOP values compared to Baseline” value (at the end of study)?
A: Its value is under 5 mmHg.

Q: And the “Corneal staining, compound I versus Vehicle” value (baseline, Day 8, EOS visit)?
A: The value was “No clinical differences were observed”.

Q: And the “Best-corrected visual acuity (BCVA) and uncorrected visual acuity (UCVA), compound I vs Vehicle-treated eyes” value (throughout the study)?
A: Its value is “did not result in any trend or obvious difference”.

Q: And the “Blink rate, compound I vs Vehicle treatment” value (throughout the study)?
A: Its value is “no trend across the scheduled time points or obvious differences”.

Q: And the “Intraocular pressure, compound I vs Vehicle-treated eyes” value (throughout the study)?
A: Its value is “No trend across the scheduled time points or obvious differences”.
